According to PubChem BioAssay (NCI):
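Test compounds were applied to cells in 96-well plates for 48 hours at 5 doses. Abbreviation: GI50, concentration required for 50% inhibition of growth. Definition used: TGI = concentration required for complete inhibition of growth.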

Key:
Test in all cases: DTP human tumour cell line panel, 48 h
786-0 renal = test system: 786-0 renal
A498 renal = test system: A498 renal
A549 NSCLC = test system: A549 NSCLC
ACHN renal = test system: ACHN renal
BT-549 breast = test system: BT-549 breast
CAKI-1 renal = test system: CAKI-1 renal
CCRF-CEM leukemia = test system: CCRF-CEM leukemia
COLO 205 colon = test system: COLO 205 colon
DU-145 prostate = test system: DU-145 prostate
HCC-2998 colon = test system: HCC-2998 colon
HCT-116 colon = test system: HCT-116 colon
HCT-15 colon = test system: HCT-15 colon
HL-60(TB) leukemia = test system: HL-60(TB) leukemia
HOP-62 NSCLC = test system: HOP-62 NSCLC
HS 578T breast = test system: HS 578T breast
HT29 colon = test system: HT29 colon
IGROV1 ovarian = test system: IGROV1 ovarian
K-562 leukemia = test system: K-562 leukemia
KM12 colon = test system: KM12 colon
LOX IMVI melanoma = test system: LOX IMVI melanoma
M14 melanoma = test system: M14 melanoma
MALME-3M melanoma = test system: MALME-3M melanoma
MCF7 breast = test system: MCF7 breast
MDA-MB-231 breast = test system: MDA-MB-231 breast
MDA-MB-435 = test system: MDA-MB-435
MOLT-4 leukemia = test system: MOLT-4 leukemia
NCI-H226 lung = test system: NCI-H226 lung
NCI-H23 lung = test system: NCI-H23 lung
NCI-H460 lung = test system: NCI-H460 lung
NCI-H522 lung = test system: NCI-H522 lung
NCI/ADR-RES ovarian = test system: NCI/ADR-RES ovarian
OVCAR-3 ovarian = test system: OVCAR-3 ovarian
OVCAR-4 ovarian = test system: OVCAR-4 ovarian
OVCAR-5 ovarian = test system: OVCAR-5 ovarian
OVCAR-8 ovarian = test system: OVCAR-8 ovarian
PC-3 prostate = test system: PC-3 prostate
RPMI-8226 leukemia = test system: RPMI-8226 leukemia
RXF 393 renal = test system: RXF 393 renal
SF-268 CNS = test system: SF-268 CNS
SF-295 CNS = test system: SF-295 CNS
SF-539 CNS = test system: SF-539 CNS
SK-MEL-2 melanoma = test system: SK-MEL-2 melanoma
SK-MEL-28 melanoma = test system: SK-MEL-28 melanoma
SK-MEL-5 melanoma = test system: SK-MEL-5 melanoma
SK-OV-3 ovarian = test system: SK-OV-3 ovarian
SN12C renal = test system: SN12C renal
SNB-19 CNS = test system: SNB-19 CNS
SNB-75 CNS = test system: SNB-75 CNS
SR leukemia = test system: SR leukemia
SW-620 colon = test system: SW-620 colon
T-47D breast = test system: T-47D breast
TK-10 renal = test system: TK-10 renal
U251 CNS = test system: U251 CNS
UACC-257 melanoma = test system: UACC-257 melanoma
UACC-62 melanoma = test system: UACC-62 melanoma
UO-31 renal = test system: UO-31 renal

SMILES: CCC(C)n1cc(C)c2c(C(=O)NCc3c(C)cc(C)[nH]c3=O)cc(Br)cc21 (configuration not stated)
- GI50 (786-0 renal): > 100 µM
- TGI (786-0 renal): > 100 µM
- GI50 (A498 renal): 38.4 µM
- TGI (A498 renal): > 100 µM
- GI50 (A549 NSCLC): 39.7 µM
- TGI (A549 NSCLC): > 100 µM
- GI50 (ACHN renal): 46.1 µM
- TGI (ACHN renal): > 100 µM
- GI50 (BT-549 breast): 41.8 µM
- TGI (BT-549 breast): > 100 µM
- GI50 (CAKI-1 renal): 94.1 µM
- TGI (CAKI-1 renal): > 100 µM
- GI50 (CCRF-CEM leukemia): 30.8 µM
- TGI (CCRF-CEM leukemia): > 100 µM
- GI50 (COLO 205 colon): 42.1 µM
- TGI (COLO 205 colon): > 100 µM
- GI50 (DU-145 prostate): 76.8 µM
- TGI (DU-145 prostate): > 100 µM
- GI50 (HCC-2998 colon): 52.4 µM
- TGI (HCC-2998 colon): > 100 µM
- GI50 (HCT-116 colon): 48 µM
- TGI (HCT-116 colon): > 100 µM
- GI50 (HCT-15 colon): 29 µM
- TGI (HCT-15 colon): > 100 µM
- GI50 (HL-60(TB) leukemia): 24.3 µM
- TGI (HL-60(TB) leukemia): 58.4 µM
- GI50 (HOP-62 NSCLC): 65.2 µM
- TGI (HOP-62 NSCLC): > 100 µM
- GI50 (HS 578T breast): 35 µM
- TGI (HS 578T breast): > 100 µM
- GI50 (HT29 colon): 41.5 µM
- TGI (HT29 colon): > 100 µM
- GI50 (IGROV1 ovarian): > 100 µM
- TGI (IGROV1 ovarian): > 100 µM
- GI50 (K-562 leukemia): 34.6 µM
- TGI (K-562 leukemia): > 100 µM
- GI50 (KM12 colon): 38.1 µM
- TGI (KM12 colon): > 100 µM
- GI50 (LOX IMVI melanoma): 32.8 µM
- TGI (LOX IMVI melanoma): > 100 µM
- GI50 (M14 melanoma): 35.2 µM
- TGI (M14 melanoma): > 100 µM
- GI50 (MALME-3M melanoma): 36.2 µM
- TGI (MALME-3M melanoma): 99.7 µM
- GI50 (MCF7 breast): 29.4 µM
- TGI (MCF7 breast): > 100 µM
- GI50 (MDA-MB-231 breast): 45 µM
- TGI (MDA-MB-231 breast): > 100 µM
- GI50 (MDA-MB-435): 27.1 µM
- TGI (MDA-MB-435): > 100 µM
- GI50 (MOLT-4 leukemia): 26.2 µM
- TGI (MOLT-4 leukemia): 71.6 µM
- GI50 (NCI-H226 lung): 57.5 µM
- TGI (NCI-H226 lung): > 100 µM
- GI50 (NCI-H23 lung): 76.3 µM
- TGI (NCI-H23 lung): > 100 µM
- GI50 (NCI-H460 lung): 40.3 µM
- TGI (NCI-H460 lung): > 100 µM
- GI50 (NCI-H522 lung): 38 µM
- TGI (NCI-H522 lung): > 100 µM
- GI50 (NCI/ADR-RES ovarian): 33.8 µM
- TGI (NCI/ADR-RES ovarian): > 100 µM
- GI50 (OVCAR-3 ovarian): 44.5 µM
- TGI (OVCAR-3 ovarian): > 100 µM
- GI50 (OVCAR-4 ovarian): 37.2 µM
- TGI (OVCAR-4 ovarian): > 100 µM
- GI50 (OVCAR-5 ovarian): > 100 µM
- TGI (OVCAR-5 ovarian): > 100 µM
- GI50 (OVCAR-8 ovarian): 63.7 µM
- TGI (OVCAR-8 ovarian): > 100 µM
- GI50 (PC-3 prostate): 19.1 µM
- TGI (PC-3 prostate): 66.9 µM
- GI50 (RPMI-8226 leukemia): 24.8 µM
- TGI (RPMI-8226 leukemia): 68 µM
- GI50 (RXF 393 renal): 27.6 µM
- TGI (RXF 393 renal): > 100 µM
- GI50 (SF-268 CNS): 72.3 µM
- TGI (SF-268 CNS): > 100 µM
- GI50 (SF-295 CNS): 29.9 µM
- TGI (SF-295 CNS): > 100 µM
- GI50 (SF-539 CNS): > 100 µM
- TGI (SF-539 CNS): > 100 µM
- GI50 (SK-MEL-2 melanoma): 35.9 µM
- TGI (SK-MEL-2 melanoma): > 100 µM
- GI50 (SK-MEL-28 melanoma): 72.5 µM
- TGI (SK-MEL-28 melanoma): > 100 µM
- GI50 (SK-MEL-5 melanoma): 13.2 µM
- TGI (SK-MEL-5 melanoma): 29.1 µM
- GI50 (SK-OV-3 ovarian): > 100 µM
- TGI (SK-OV-3 ovarian): > 100 µM
- GI50 (SN12C renal): 55.6 µM
- TGI (SN12C renal): > 100 µM
- GI50 (SNB-19 CNS): > 100 µM
- TGI (SNB-19 CNS): > 100 µM
- GI50 (SNB-75 CNS): 43.5 µM
- TGI (SNB-75 CNS): > 100 µM
- GI50 (SR leukemia): 32.9 µM
- TGI (SR leukemia): > 100 µM
- GI50 (SW-620 colon): 36.4 µM
- TGI (SW-620 colon): > 100 µM
- GI50 (T-47D breast): 20 µM
- TGI (T-47D breast): 73.3 µM
- GI50 (TK-10 renal): > 100 µM
- TGI (TK-10 renal): > 100 µM
- GI50 (U251 CNS): 62.8 µM
- TGI (U251 CNS): > 100 µM
- GI50 (UACC-257 melanoma): 32.8 µM
- TGI (UACC-257 melanoma): > 100 µM
- GI50 (UACC-62 melanoma): 29.4 µM
- TGI (UACC-62 melanoma): > 100 µM
- GI50 (UO-31 renal): 70.5 µM
- TGI (UO-31 renal): > 100 µM
